The structures appear in SMILES notation. Activity calls are given as the source filed them. No rule for the calls is given here.

In this series the test system is CCRIS mutagenicity, Ames/micronucleus/aberration tests. Description: CCRIS mutagenicity studies.
Where [1] appears, read: Test System: AMES SALMONELLA TYPHIMURIUM, Strain/Indicator: TA98, Metabolic Activation: NONE, Method: PREINCUBATION
[2] abbreviates: Test System: AMES SALMONELLA TYPHIMURIUM, Strain/Indicator: TA100, Metabolic Activation: NONE, Method: PREINCUBATION
Where [3] appears, read: Test System: AMES SALMONELLA TYPHIMURIUM, Strain/Indicator: TA98, Metabolic Activation: NONE, Method: STANDARD PLATE.
Where [4] appears, read: Test System: AMES SALMONELLA TYPHIMURIUM, Strain/Indicator: TA98, Metabolic Activation: RAT, LIVER, S-9, AROCLOR 1254, Method: STANDARD PLATE.
The mark [5] stands for this setting: Test System: AMES SALMONELLA TYPHIMURIUM, Strain/Indicator: TA100, Metabolic Activation: NONE, Method: STANDARD PLATE.
Where [6] appears, read: Test System: AMES SALMONELLA TYPHIMURIUM, Strain/Indicator: TA100, Metabolic Activation: RAT, LIVER, S-9, AROCLOR 1254, Method: STANDARD PLATE.

In the case of `COc1ccc(Cc2cnc(N)nc2N)cc1OC`, the mutagenic call was “inactive; negative” (Test System: AMES SALMONELLA TYPHIMURIUM, Strain/Indicator: TA98, Metabolic Activation: HAMSTER, LIVER, S-9, PHENOBARBITAL AND BETA-NAPHTHOFLAVONE, Method: PREINCUBATION); “inactive; negative” under setting [1]; “inactive; negative” (Test System: AMES SALMONELLA TYPHIMURIUM, Strain/Indicator: TA98, Metabolic Activation: RAT, LIVER, S-9, PHENOBARBITAL AND BETA-NAPHTHOFLAVONE, Method: PREINCUBATION); “active; positive” (Test System: AMES SALMONELLA TYPHIMURIUM, Strain/Indicator: TA100, Metabolic Activation: HAMSTER, LIVER, S-9, PHENOBARBITAL AND BETA-NAPHTHOFLAVONE, Method: PREINCUBATION); “inactive; negative” under setting [2]; “inactive; negative” (Test System: AMES SALMONELLA TYPHIMURIUM, Strain/Indicator: TA100, Metabolic Activation: RAT, LIVER, S-9, PHENOBARBITAL AND BETA-NAPHTHOFLAVONE, Method: PREINCUBATION). Moreover, the mutagenic call was “inactive; negative” (Test System: E.COLI, Strain/Indicator: WP2UVRA/PKM101, Metabolic Activation: NONE, Method: PREINCUBATION) and “inactive; negative” (Test System: E.COLI, Strain/Indicator: WP2UVRA/PKM101, Metabolic Activation: RAT LIVER S-9, PHENOBARBITAL AND 5,6-BENZOFLAVONE, Method: PREINCUBATION).

As to `CNP1(NC)=NP(NC)(NC)=NP(NC)(NC)=N1`, the mutagenic call is, setting by setting: under setting [3], “inactive; negative”; under setting [4], “inactive; negative”; under setting [5], “inactive; negative”; under setting [6], “inactive; negative”.

With `O=C(Nc1ccc2c(O)c(N=Nc3ccc(N=Nc4ccc(S(=O)(=O)O)cc4)cc3)c(S(=O)(=O)O)cc2c1)c1ccccc1`, the mutagenic call under setting [3] was “inactive; negative”; the mutagenic call under setting [4] is “inactive; negative”; the mutagenic call under setting [5] was “inactive; negative”; the mutagenic call under setting [6] is “inactive; negative”; the mutagenic call (Test System: AMES SALMONELLA TYPHIMURIUM, Strain/Indicator: TA1535, Metabolic Activation: NONE, Method: STANDARD PLATE) is “inactive; negative”; the mutagenic call (Test System: AMES SALMONELLA TYPHIMURIUM, Strain/Indicator: TA1535, Metabolic Activation: RAT, LIVER, S-9, AROCLOR 1254, Method: STANDARD PLATE) was “inactive; negative”. Besides, the mutagenic call by setting is: (Test System: AMES SALMONELLA TYPHIMURIUM, Strain/Indicator: TA1537, Metabolic Activation: NONE, Method: STANDARD PLATE) “inactive; negative”; (Test System: AMES SALMONELLA TYPHIMURIUM, Strain/Indicator: TA1537, Metabolic Activation: RAT, LIVER, S-9, AROCLOR 1254, Method: STANDARD PLATE) “inactive; negative”; (Test System: AMES SALMONELLA TYPHIMURIUM, Strain/Indicator: TA1538, Metabolic Activation: NONE, Method: STANDARD PLATE) “inactive; negative”; (Test System: AMES SALMONELLA TYPHIMURIUM, Strain/Indicator: TA1538, Metabolic Activation: RAT, LIVER, S-9, AROCLOR 1254, Method: STANDARD PLATE) “inactive; negative”.

Consider `O=C(Nc1ccc([N+](=O)[O-])cc1)c1csc([N+](=O)[O-])c1`, for which the mutagenic call by setting is: under setting [3], “active; positive”; under setting [5], “active; positive”.

With `CCCCC(C)=O`, the mutagenic call is, setting by setting: (Test System: CHINESE HAMSTER V-79, Strain/Indicator: V-79 (HPRT)/6-THIOGUANINE, Metabolic Activation: NONE, Method: STANDARD PLATE) “inactive; negative”; (Test System: CHINESE HAMSTER V-79, Strain/Indicator: V-79 (HPRT)/6-THIOGUANINE, Metabolic Activation: RAT LIVER S-9, Method: STANDARD PLATE) “inactive; negative”.

Turning to `C[C@]12CCC(=O)C=C1C=C[C@@H]1[C@@H]2CC[C@@]2(C)[C@H]1CC[C@@]2(O)CCC(=O)O`, the mutagenic call was “inactive; negative” (End Point: IN VITRO MICRONUCLEUS, Test System: HUMAN PERIPHERAL LYMPHOCYTES, Metabolic Activation: NONE); “inactive; negative” (End Point: IN VITRO MICRONUCLEUS, Test System: HUMAN PRIMARY HEPATOCYTES (FEMALE), Metabolic Activation: NONE); “active; positive” (End Point: IN VITRO MICRONUCLEUS, Test System: RAT PRIMARY HEPATOCYTES (MALE/FEMALE), Metabolic Activation: NONE).

On to `Cc1c(O)cc2c(c1O)C(=O)c1cccc(O)c1C2=O`, for which the mutagenic call reads like this: under setting [1], “inactive; negative”; (Test System: AMES SALMONELLA TYPHIMURIUM, Strain/Indicator: TA98, Metabolic Activation: RAT, LIVER, S-9, PCB, Method: PREINCUBATION) “active; positive”; under setting [2], “inactive; negative”; (Test System: AMES SALMONELLA TYPHIMURIUM, Strain/Indicator: TA100, Metabolic Activation: RAT, LIVER, S-9, PCB, Method: PREINCUBATION) “active; positive”.

Regarding `O[C@H]1[C@H]2O[C@H]2c2c(ccc3cc4ccc5ccccc5c4nc23)[C@@H]1O`, the mutagenic call runs as follows: under setting [1], “active; positive”; under setting [2], “active; positive”; (Test System: CHINESE HAMSTER V-79, Strain/Indicator: V-79/8-AZAGUANINE, Metabolic Activation: NONE, Method: STANDARD PLATE) “active; positive”.

Values taken from PubChem BioAssay AID1259407 (Chemical Carcinogenesis Research Information System (CCRIS), 2018).
